Source: US9505735B2, “Compounds for treating infectious diseases” (Whitehead Institute for Biomedical Research, priority 2012, dated 2016)

Columns and labels:
PIG-W = target: T1, PIG-W (Homo sapiens, UniProt Q7Z7B1); assay: In vitro acylation assay with membranes of the PIG-W strain; format: biochemical; details: membranes of low copy plasmid strain
T1 construct: expressed in transfected cells; host or cells: S. cerevisiae BY4741-derived gwt1 deletion shuttle strain carrying a pAG415GPD-based PIG-W plasmid
T1 sequence (Q7Z7B1 1-504): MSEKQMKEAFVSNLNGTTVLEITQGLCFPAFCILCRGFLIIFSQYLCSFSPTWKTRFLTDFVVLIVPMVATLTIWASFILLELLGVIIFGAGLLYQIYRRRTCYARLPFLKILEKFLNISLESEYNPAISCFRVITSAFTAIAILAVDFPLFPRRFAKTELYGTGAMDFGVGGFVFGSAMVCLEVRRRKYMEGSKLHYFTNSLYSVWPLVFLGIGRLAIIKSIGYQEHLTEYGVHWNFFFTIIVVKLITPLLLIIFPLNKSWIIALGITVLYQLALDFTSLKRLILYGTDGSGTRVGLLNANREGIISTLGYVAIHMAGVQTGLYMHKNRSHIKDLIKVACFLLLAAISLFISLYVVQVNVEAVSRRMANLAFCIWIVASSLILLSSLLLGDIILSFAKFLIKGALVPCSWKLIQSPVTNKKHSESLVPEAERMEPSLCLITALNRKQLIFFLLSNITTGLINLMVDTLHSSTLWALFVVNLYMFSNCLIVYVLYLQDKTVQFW
Experimental: Photographs were taken after 24 hours. DMSO-treated cultures have large, dense colonies of C. albicans which are not present in gepinacin-treated cultures. (B) Anti-fungal susceptibility testing of S. cerevisiae strains in which the endogenous GWT1 gene had been replaced by plasmid-driven expression of the human gene (PIG-W), or the fungal gene (GWT1). CEN plasmids are low copy, […] plasmids are high copy.
Experiments were performed using a previously published protocol (Umemara, et al. (2003) J Biol Chem 278, 23639-23647) with the following modifications; UDP[^3H]GlcNAc was used instead of [^14C] and TLC plates were imaged by autoradiography. Lipid extracts were treated overnight with phosphatidylinositol-specific phospholipase C to confirm that the band identified as GlcN-(acyl)PI was resistant to cleavage (data not shown).

Emp24-GFP = Emp24-GFP distribution (microscopy); format: cell-based, S. cerevisiae; details: 5 μM, overnight
Experimental: (A) Anti-fungal susceptibility testing of gepinacin using suppressor strains 20-1 and 20-2. (B) The sequence of EMP24 in S. cerevisiae is shown with the location of mutations found by whole genome sequencing in the suppressor strains 20-1 and 20-2 indicated. The sequence in FIG. 4B corresponds to SEQ ID NO: 1. (C) Micrographs showing the redistribution of Emp24-GFP after overnight incubation with 5 μM gepinacin. Green fluorescence and DIC images are merged in the lower panels. Scale bar; 5 μm.
To determine if gepinacin does indeed alter trafficking and change Emp24 distribution yeast in which GFP was fused in frame to the 3′ end of genomic EMP24 were examined.

`COc1ccc(NC(=O)COc2cccc(OCC(C)C)c2)cc1` [gepinacin] was tested, and the “activity of the human enzyme (GlcN-(acyl)PI formation)” value (PIG-W) was “not inhibited” and the Emp24-GFP localisation (Emp24-GFP) was “dramatically re-localized into large, bright dotlike structures”.
